The target of the assay is human TRPA1 channel (Homo sapiens (Human), UniProt O75762). The assay is described as follows: hTRPA1 CHO Ca2+ FLIPR Tetra assay: block of cinnamaldehyde induced calcium influx. As to conditions: CHO cells expressing TRPA1, Hill coefficient fixed to 1.5. It counts as cell-based. As for the experimental part:
CHO cells expressing TRPA1 were plated into 384-well plates, incubated overnight at 37° C., and loaded with BD calcium indicator dye for 1 hr at 37° C. followed by 15 minutes at room temperature. The assay buffer was Hank's Balanced Salt Solution (HBSS) containing 20 mM HEPES (pH readjusted to 7.4) along with 0.02% BSA.
Following dye load and plate cool down, compounds were added to the cells using FLIPR Tetra. Plates were then incubated with compounds for 10 minutes or 90 minutes at room temperature prior to adding agonist. Following this incubation, about an EC80 concentration of cinnamaldehyde […] was added to active the channels and block of cinnamaldehyde induced calcium influx was measured.
Fixing the Hill coefficient will generally reduce variability of the IC50 determination. The IC50 results were individually examined to make sure the MIN and MAX points were set correctly prior to validation of the results.

The mark [1] stands for this setting: hTRPA1 IC50 10 min, 10 minutes incubation with compound before cinnamaldehyde (about EC80).
Setting [2] is: hTRPA1 IC50 90 min, 90 minutes incubation with compound before cinnamaldehyde (about EC80).

Chain of human TRPA1 channel (O75762 whole entry): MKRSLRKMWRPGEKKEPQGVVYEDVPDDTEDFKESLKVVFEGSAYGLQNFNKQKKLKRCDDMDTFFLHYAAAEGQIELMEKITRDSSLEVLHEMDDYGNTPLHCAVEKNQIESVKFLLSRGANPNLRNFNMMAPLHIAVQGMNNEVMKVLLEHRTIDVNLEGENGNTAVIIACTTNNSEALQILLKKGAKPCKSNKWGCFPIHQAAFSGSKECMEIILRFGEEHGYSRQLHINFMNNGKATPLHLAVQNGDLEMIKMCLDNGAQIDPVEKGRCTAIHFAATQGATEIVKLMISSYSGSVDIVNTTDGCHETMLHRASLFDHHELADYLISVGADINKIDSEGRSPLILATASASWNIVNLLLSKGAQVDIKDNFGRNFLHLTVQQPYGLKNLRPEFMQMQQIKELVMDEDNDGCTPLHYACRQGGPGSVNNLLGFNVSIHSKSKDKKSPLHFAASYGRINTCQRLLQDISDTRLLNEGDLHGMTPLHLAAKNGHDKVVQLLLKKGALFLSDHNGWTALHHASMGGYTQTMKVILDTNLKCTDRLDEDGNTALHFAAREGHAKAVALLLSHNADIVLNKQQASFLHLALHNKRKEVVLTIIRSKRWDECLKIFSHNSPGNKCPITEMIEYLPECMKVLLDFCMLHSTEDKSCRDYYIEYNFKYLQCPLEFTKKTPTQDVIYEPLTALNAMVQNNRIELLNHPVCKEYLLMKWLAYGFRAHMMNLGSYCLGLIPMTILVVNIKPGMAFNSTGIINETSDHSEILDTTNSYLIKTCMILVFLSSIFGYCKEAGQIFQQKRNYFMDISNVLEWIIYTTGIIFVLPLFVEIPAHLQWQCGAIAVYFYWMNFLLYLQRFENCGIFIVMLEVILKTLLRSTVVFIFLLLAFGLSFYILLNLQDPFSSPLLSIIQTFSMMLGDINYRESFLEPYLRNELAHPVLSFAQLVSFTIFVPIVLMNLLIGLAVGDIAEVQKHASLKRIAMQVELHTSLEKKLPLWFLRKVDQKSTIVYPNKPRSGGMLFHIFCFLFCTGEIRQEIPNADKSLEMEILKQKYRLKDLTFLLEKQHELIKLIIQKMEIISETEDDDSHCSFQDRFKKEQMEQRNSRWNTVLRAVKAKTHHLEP

Take `Cc1cnn2ncn(Cc3nc([C@@H]4CO[C@@H](c5ccc(Cl)cn5)C4)no3)c(=O)c12` (racemic) [Example 72, Racemic 3-((3-((3R,5R)-5-(5-chloropyridin-2-yl)tetrahydrofuran-3-yl)-1,2,4-oxadiazol-5-yl)methyl)-5-methylpyrazolo[5,1-f] [1,2,4]triazin-4(3H)-one]: the IC50 under setting [1] worked out at 219 nM and the IC50 under setting [2] came out at 150 nM. Turning to `Cc1nc(Br)n2ncn(Cc3nc([C@@H]4CO[C@@H](c5ccc(F)cc5)C4)no3)c(=O)c12` (racemic) [Example 90, 7-bromo-5-methyl-3-[[3-[rac-(3R,5R)-5-(4-fluorophenyl)tetrahydro-furan-3-yl]-1,2,4-oxadiazol-5-yl]methyl] imidazo[5,1-f][1,2,4] triazin-4-one], under setting [2], the IC50 worked out at 33 nM. Same read-out and setting: in the case of `Cc1nc(N2CCNCC2)n2ncn(Cc3nc([C@@H]4CO[C@@H](c5ccc(Cl)cc5)C4)no3)c(=O)c12` (racemic) [Example 91, formic acid; 5-methyl-7-piperazin-1-yl-3-[[3-[rac-(3R,5R)-5-(4-chlorophenyl)tetrahydro-furan-3-yl]-1,2,4-oxadiazol-5-yl]methyl] imidazo[5,1-f][1,2,4]triazin-4-one] it was 330 nM; in that of `Cc1nc(N2CCN(C)CC2)n2ncn(Cc3nc([C@@H]4CO[C@@H](c5ccc(Cl)cc5)C4)no3)c(=O)c12` (racemic) [Example 92, 5-methyl-7-(4-methylpiperazin-1-yl)-3-[[3-[rac-(3R,5R)-5-(4-chlorophenyl)tetrahydro-furan-3-yl]-1,2,4-oxadiazol-5-yl]methyl]imidazo[5,1-f][1,2,4]triazin-4-one], 170 nM.

With `Cc1nc(Cl)n2ncn(Cc3nc([C@@H]4CO[C@@H](c5ccc(Cl)cc5)C4)no3)c(=O)c12` (racemic) [Example 93, 7-chloro-5-methyl-3-[[3-[rac-(3R,5R)-5-(4-chlorophenyl)tetrahydro-furan-3-yl]-1,2,4-oxadiazol-5-yl]methyl] imidazo[5,1-f][1,2,4] triazin-4-one], under setting [2], the IC50 was 13 nM. As for `O=c1c2cccc(=O)n2ccn1Cc1nc([C@@H]2CO[C@@H](c3ccc(F)cc3)C2)no1` (racemic) [Example 94, 2-[[3-[rac-(3R,5R)-5-(4-fluorophenyl)tetrahydro-furan-3-yl]-1,2,4-oxadiazol-5-yl]methyl]pyrido[1,2-a] pyrazine-1,6-dione], the IC50 under setting [2] stood at 12 nM.

For `O=c1c2c(Cl)ccnc2ncn1Cc1nc([C@@H]2CO[C@@H](c3ccc(F)cc3)C2)no1` (racemic) [Example 95, 5-chloro-3-[[3-[rac-(3R,5R)-5-(4-fluorophenyl)tetrahydrofuran-3-yl]-1,2,4-oxadiazol-5-yl]methyl] pyrido[2,3-d]pyrimidin-4-one], the IC50 under setting [2] came out at 15 nM.

Turning to `Cc1nn(C)c2ncn(Cc3nc([C@@H]4CO[C@@H](c5ccc(Cl)cc5)C4)no3)c(=O)c12` (racemic) [Example 96, 1,3-dimethyl-5-[[3-[rac-(3R,5R)-5-(4-chlorophenyl)tetrahydro-furan-3-yl]-1,2,4-oxadiazol-5-yl]methyl] pyrazolo[3,4-d]pyrimidin-4-one], under setting [2], the IC50 was 33 nM.

In the case of `Cc1nc(C)n2ncn(Cc3nc([C@@H]4CO[C@@H](c5ccc(Cl)cc5)C4)no3)c(=O)c12` (racemic) [Example 97, 5,7-dimethyl-3-[[3-[rac-(3R,5R)-5-(4-chlorophenyl)tetrahydro-furan-3-yl]-1,2,4-oxadiazol-5-yl]methyl] imidazo[5,1-f][1,2,4] triazin-4-one], the IC50 under setting [2] came out at 45 nM. `O=c1c2cccc(=O)n2ccn1Cc1nc([C@@H]2CO[C@@H](c3ccc(Cl)cc3)C2)no1` (racemic) [Example 98, 2-[[3-[rac-(3R,5R)-5-(4-chlorophenyl)tetrahydro-furan-3-yl]-1,2,4-oxadiazol-5-yl]methyl] pyrido[1,2-a]pyrazine-1,6-dione]: the IC50 reads like this: under setting [1], 6.4 nM; under setting [2], 4 nM. For the compound `O=c1ccn2c(=O)n(Cc3nc([C@@H]4CO[C@@H](c5ccc(Cl)cc5)C4)no3)ccc2n1` (racemic) [Example 99, 7-[[3-[rac-(3R,5R)-5-(4-chlorophenyl)tetrahydro-furan-3-yl]-1,2,4-oxadiazol-5-yl]methyl]pyrimido[1,6-a]pyrimidine-2,6-dione], the IC50 reads like this: under setting [1], 15.4 nM; under setting [2], 7.2 nM. The like results for `Cc1cccc2nn(Cc3nc([C@@H]4CO[C@@H](c5ccc(Cl)cc5)C4)no3)c(=O)n12` (racemic) [Example 100, 5-methyl-2-[[3-[rac-(3R,5R)-5-(4-chlorophenyl)tetrahydro-furan-3-yl]-1,2,4-oxadiazol-5-yl]methyl]-[1,2,4]triazolo[4,3-a] pyridin-3-one] were, in that order, 153 nM and 140 nM.

Consider `Cc1nc(N2CCOCC2)n2ncn(Cc3nc([C@@H]4CO[C@@H](c5ccc(Cl)cc5)C4)no3)c(=O)c12` (racemic) [Example 101, 5-methyl-7-morpholino-3-[[3-[rac-(3R,5R)-5-(4-chlorophenyl)tetrahydro-furan-3-yl]-1,2,4-oxadiazol-5-yl]methyl]imidazo[5,1-f][1,2,4]triazin-4-one], for which the IC50 reads like this: under setting [1], 123 nM; under setting [2], 96 nM. The like results for `Cn1cncc1C(=O)NCc1nc([C@H]2CO[C@H](c3ccc(Cl)cc3)C2)no1` (racemic) [Example 102, 3-methyl-N-[[3-[rac-(3S,5S)-5-(4-chlorophenyl)tetrahydro-furan-3-yl]-1,2,4-oxadiazol-5-yl]methyl]imidazole-4-carboxamide] were, in that order, 38.9 nM and 23 nM. As to `Cc1nc(N(C)C)n2ncn(Cc3nc([C@@H]4CO[C@@H](c5ccc(Cl)cc5)C4)no3)c(=O)c12` (racemic) [Example 105, 7-(dimethylamino)-5-methyl-3-[[3-[rac-(3R,5R)-5-(4-chlorophenyl)tetrahydro-furan-3-yl]-1,2,4-oxadiazol-5-yl]methyl]imidazo[5,1-f][1,2,4]triazin-4-one], the IC50 runs as follows: under setting [1], 42 nM; under setting [2], 59 nM. As to `Cn1nnc2ccn(Cc3nc([C@@H]4CO[C@@H](c5ccc(F)cc5)C4)no3)c(=O)c21` (racemic) [Example 106, 3-methyl-5-[[3-[rac-(3R,5R)-5-(4-fluorophenyl)tetrahydro-furan-3-yl]-1,2,4-oxadiazol-5-yl]methyl] triazolo[4,5-c]pyridin-4-one], the IC50 came to 6.9 nM under setting [1] and 5.6 nM under setting [2]. With `Cc1nc(Br)n2ncn(Cc3nc([C@@H]4CO[C@@H](c5ccc(Cl)cc5)C4)no3)c(=O)c12` (racemic) [Example 107, 7-bromo-5-methyl-3-[[3-[rac-(3R,5R)-5-(4-chlorophenyl)tetrahydro-furan-3-yl]-1,2,4-oxadiazol-5-yl]methyl] imidazo[5,1-f][1,2,4] triazin-4-one], the IC50 reads like this: under setting [1], 0.8 nM; under setting [2], 0.3 nM. Taken in the same sequence, the figures for `Nc1nccc2c(=O)n(Cc3nc([C@@H]4CO[C@@H](c5ccc(Cl)cc5)C4)no3)cnc12` (racemic) [Example 108, 8-amino-3-[[3-[rac-(3R,5R)-5-(4-chlorophenyl)tetrahydro-furan-3-yl]-1,2,4-oxadiazol-5-yl]methyl]pyrido[3,4-d] pyrimidin-4-one] were 76.9 nM and 57 nM.
